Measurements: patent US10456358B2, “Isoxazoline compositions and use thereof in the prevention or treatment of parasite infestations in animals” (Intervet Inc., priority 2013, dated 2019)

Test system: poultry red mite (Dermanyssus gallinae)
Assay: Efficacy study: medicated drinking water against artificially induced poultry red mite infestations of laying hens
Type: in vivo
Method: Groups A-D (n=6) were treated with doses of 2, 1 and 0.5 mg fluralaner/kg BW once or 1 mg fluralaner/kg BW twice (0.5 mg/kg BW on 2 occasions).
Drinking water consumption in each was measured on three days prior to administration to calculate the average daily water consumption. Medicated water was prepared by diluting a fluralaner solution (10 mg/mL) as shown in the table below to the calculated fluralaner concentration.
On D0 (group D additionally on D7), the hens in groups A-D received fluralaner via medicated drinking water. Group E received un-medicated drinking water ad libitum.
The dose to be administered was calculated based on average body weights of each treatment group, obtained one day before treatment (D-1, D 6). A fluralaner stock solution was diluted in the drinking water to prepare medicated water ready for consumption.
The volume of medicated water offered per group on D0 (group D also on D7) was approximately 50% of the calculated mean daily water intake measured previously in the respective group in order to ensure consumption of the full dose.
Once all medicated water was consumed the other 50% volume of the mean daily water intake was supplied as tap water in the same drinker.
On Day 1, Day 5, Day 8, Day 12, D15, D19 and D22 four of six hens per group were infested with approximately 200 vital, D. gallinae mites (unfed nymphs and adults that starved before infestation for 7 days).
From each infested hen approximately 25 engorged mites were collected and incubated for approximately 24 hours. The dead, damaged and/or live mites were counted visually using a binocular.
Mites were classified as dead if no movement was determined or mites lay in a dorsal position. Mites were classified as damaged if their movement was uncoordinated.
The Mite Mortality and Mite Inhibition percentage was calculated for each treated group in comparison to a not-treated negative control group.

[1] = Group A, 2 mg/kg BW once (D0) via drinking water, laying hens, infestation on D1
[2] = Group A, 2 mg/kg BW once (D0) via drinking water, laying hens, infestation on D5
[3] = Group A, 2 mg/kg BW once (D0) via drinking water, laying hens, infestation on D8
[4] = Group A, 2 mg/kg BW once (D0) via drinking water, laying hens, infestation on D12
[5] = Group A, 2 mg/kg BW once (D0) via drinking water, laying hens, infestation on D15
[6] = Group A, 2 mg/kg BW once (D0) via drinking water, laying hens, infestation on D19
[7] = Group A, 2 mg/kg BW once (D0) via drinking water, laying hens, infestation on D22
[8] = Group B, 1 mg/kg BW once (D0) via drinking water, laying hens, infestation on D1
[9] = Group B, 1 mg/kg BW once (D0) via drinking water, laying hens, infestation on D5
[10] = Group B, 1 mg/kg BW once (D0) via drinking water, laying hens, infestation on D8
[11] = Group B, 1 mg/kg BW once (D0) via drinking water, laying hens, infestation on D12
[12] = Group B, 1 mg/kg BW once (D0) via drinking water, laying hens, infestation on D15
[13] = Group B, 1 mg/kg BW once (D0) via drinking water, laying hens, infestation on D19
[14] = Group B, 1 mg/kg BW once (D0) via drinking water, laying hens, infestation on D22
[15] = Group C, 0.5 mg/kg BW once (D0) via drinking water, laying hens, infestation on D1
[16] = Group C, 0.5 mg/kg BW once (D0) via drinking water, laying hens, infestation on D5
[17] = Group C, 0.5 mg/kg BW once (D0) via drinking water, laying hens, infestation on D8
[18] = Group C, 0.5 mg/kg BW once (D0) via drinking water, laying hens, infestation on D12
[19] = Group C, 0.5 mg/kg BW once (D0) via drinking water, laying hens, infestation on D15
[20] = Group C, 0.5 mg/kg BW once (D0) via drinking water, laying hens, infestation on D19
[21] = Group C, 0.5 mg/kg BW once (D0) via drinking water, laying hens, infestation on D22
[22] = Group D, 1 (2 × 0.5) mg/kg BW (D0 and D7) via drinking water, laying hens, infestation on D1
[23] = Group D, 1 (2 × 0.5) mg/kg BW (D0 and D7) via drinking water, laying hens, infestation on D5
[24] = Group D, 1 (2 × 0.5) mg/kg BW (D0 and D7) via drinking water, laying hens, infestation on D8
[25] = Group D, 1 (2 × 0.5) mg/kg BW (D0 and D7) via drinking water, laying hens, infestation on D12
[26] = Group D, 1 (2 × 0.5) mg/kg BW (D0 and D7) via drinking water, laying hens, infestation on D15
[27] = Group D, 1 (2 × 0.5) mg/kg BW (D0 and D7) via drinking water, laying hens, infestation on D19
[28] = Group D, 1 (2 × 0.5) mg/kg BW (D0 and D7) via drinking water, laying hens, infestation on D22

SMILES: Cc1cc(C2=NOC(c3cc(Cl)cc(Cl)c3)(C(F)(F)F)C2)ccc1C(=O)NCC(=O)NCC(F)(F)F (stereo not shown) [fluralaner, 4-[5-(3,5-Dichlorophenyl)-5-trifluoromethyl-4,5-dihydroisoxazol-3-yl]-2-methyl-N-[(2,2,2-trifluoro-ethylcarbamoyl)-methyl]-benzamide]
- % Inhibition of D. gallinae assessed 24 hours after infestation [1]: 100%
- % Mortality of D. gallinae assessed 24 hours after infestation [1]: 100%
- % Inhibition of D. gallinae assessed 24 hours after infestation [2]: 100%
- % Mortality of D. gallinae assessed 24 hours after infestation [2]: 100%
- % Inhibition of D. gallinae assessed 24 hours after infestation [3]: 100%
- % Mortality of D. gallinae assessed 24 hours after infestation [3]: 100%
- % Inhibition of D. gallinae assessed 24 hours after infestation [4]: 100%
- % Mortality of D. gallinae assessed 24 hours after infestation [4]: 100%
- % Inhibition of D. gallinae assessed 24 hours after infestation [5]: 81%
- % Mortality of D. gallinae assessed 24 hours after infestation [5]: 77%
- % Inhibition of D. gallinae assessed 24 hours after infestation [6]: 14%
- % Mortality of D. gallinae assessed 24 hours after infestation [6]: 1%
- % Inhibition of D. gallinae assessed 24 hours after infestation [7]: 0%
- % Mortality of D. gallinae assessed 24 hours after infestation [7]: 0%
- % Inhibition of D. gallinae assessed 24 hours after infestation [8]: 100%
- % Mortality of D. gallinae assessed 24 hours after infestation [8]: 100%
- % Inhibition of D. gallinae assessed 24 hours after infestation [9]: 100%
- % Mortality of D. gallinae assessed 24 hours after infestation [9]: 100%
- % Inhibition of D. gallinae assessed 24 hours after infestation [10]: 100%
- % Mortality of D. gallinae assessed 24 hours after infestation [10]: 100%
- % Inhibition of D. gallinae assessed 24 hours after infestation [11]: 95%
- % Mortality of D. gallinae assessed 24 hours after infestation [11]: 94%
- % Inhibition of D. gallinae assessed 24 hours after infestation [12]: 81%
- % Mortality of D. gallinae assessed 24 hours after infestation [12]: 77%
- % Inhibition of D. gallinae assessed 24 hours after infestation [13]: 3%
- % Mortality of D. gallinae assessed 24 hours after infestation [13]: 2%
- % Inhibition of D. gallinae assessed 24 hours after infestation [14]: 0%
- % Mortality of D. gallinae assessed 24 hours after infestation [14]: 0%
- % Inhibition of D. gallinae assessed 24 hours after infestation [15]: 100%
- % Mortality of D. gallinae assessed 24 hours after infestation [15]: 100%
- % Inhibition of D. gallinae assessed 24 hours after infestation [16]: 100%
- % Mortality of D. gallinae assessed 24 hours after infestation [16]: 100%
- % Inhibition of D. gallinae assessed 24 hours after infestation [17]: 100%
- % Mortality of D. gallinae assessed 24 hours after infestation [17]: 97%
- % Inhibition of D. gallinae assessed 24 hours after infestation [18]: 75%
- % Mortality of D. gallinae assessed 24 hours after infestation [18]: 55%
- % Inhibition of D. gallinae assessed 24 hours after infestation [19]: 19%
- % Mortality of D. gallinae assessed 24 hours after infestation [19]: 15%
- % Inhibition of D. gallinae assessed 24 hours after infestation [20]: 0%
- % Mortality of D. gallinae assessed 24 hours after infestation [20]: 0%
- % Inhibition of D. gallinae assessed 24 hours after infestation [21]: 0%
- % Mortality of D. gallinae assessed 24 hours after infestation [21]: 0%
- % Inhibition of D. gallinae assessed 24 hours after infestation [22]: 100%
- % Mortality of D. gallinae assessed 24 hours after infestation [22]: 100%
- % Inhibition of D. gallinae assessed 24 hours after infestation [23]: 100%
- % Mortality of D. gallinae assessed 24 hours after infestation [23]: 100%
- % Inhibition of D. gallinae assessed 24 hours after infestation [24]: 100%
- % Mortality of D. gallinae assessed 24 hours after infestation [24]: 100%
- % Inhibition of D. gallinae assessed 24 hours after infestation [25]: 100%
- % Mortality of D. gallinae assessed 24 hours after infestation [25]: 100%
- % Inhibition of D. gallinae assessed 24 hours after infestation [26]: 99%
- % Mortality of D. gallinae assessed 24 hours after infestation [26]: 98%
- % Inhibition of D. gallinae assessed 24 hours after infestation [27]: 66%
- % Mortality of D. gallinae assessed 24 hours after infestation [27]: 59%
- % Inhibition of D. gallinae assessed 24 hours after infestation [28]: 27%
- % Mortality of D. gallinae assessed 24 hours after infestation [28]: 14%
- onset of action (all administered doses, via drinking water, laying hens): fast onset of action
- inhibition of red poultry mites (drinking water administration to poultry animals, for at least 15 days): 99%
